Active and inactive are the calls of the source. The calls are words filed in the database; no cut-off is given here.
Assays:
Oryza sativa [1] = experiment: Phytotoxicity against Oryza sativa cv. Koshihikari (rice) seedling assessed as shoot growth inhibition; format: organism-based; details: in vivo
Oryza sativa [2] = experiment: Growth promoting activity in Oryza sativa cv. Koshihikari (rice) seedling shoot at 1 x 10' -5 M; format: functional, organism-based
Oryza sativa [3] = experiment: Phytotoxicity against Oryza sativa cv. Koshihikari (rice) seedling assessed as root necrosis at 1 x 10' -3 M; format: organism-based; details: in vivo, 1000 µM
Lactuca sativa [4] = experiment: Growth promoting activity in Lactuca sativa cv. Gokuwase-CISCO (lettuce) seedling hypocotyl at 1 x 10' -6 to 1 x 10' -3 M; format: functional, organism-based
Lactuca sativa [5] = experiment: Phytotoxicity against Lactuca sativa cv. Gokuwase-CISCO (lettuce) seedling assessed as root necrosis at 1 x 10' -3 M; format: organism-based; details: in vivo, 1000 µM
Lactuca sativa [6] = experiment: Phytotoxicity against Lactuca sativa cv. Gokuwase-CISCO (lettuce) seedling assessed as hypocotyl necrosis at 1 x 10' -3 M; format: organism-based; details: in vivo, 1000 µM
Oryza sativa [7] = experiment: Growth promoting activity in Oryza sativa cv. Koshihikari (rice) seedling root at 1 x 10' -5 M relative to control; format: functional, organism-based
Oryza sativa [8] = experiment: Growth promoting activity in Oryza sativa cv. Koshihikari (rice) seedling root at 1 x 10' -4 M relative to control; format: functional
Vigna mungo [9] = experiment: Phytotoxicity against Vigna mungo (black gram) seedling assessed as hypocotyl growth inhibition at 1 x 10' -6 to 1 x 10' -3 M; format: organism-based; details: in vivo
Vigna mungo [10] = experiment: Phytotoxicity against Vigna mungo (black gram) seedling assessed as root growth inhibition at 1 x 10' -6 to 1 x 10' -3 M; format: organism-based; details: in vivo
Vigna mungo [11] = experiment: Growth promoting activity in Vigna mungo (black gram) seedling hypocotyl at 1 x 10' -6 to 1 x 10' -3 M; format: functional, organism-based
Vigna mungo [12] = experiment: Growth promoting activity in Vigna mungo (black gram) seedling root at 1 x 10' -6 to 1 x 10' -3 M; format: functional, organism-based
[13] = tested on: Brassica rapa subsp. pekinensis; experiment: Phytotoxicity against Brassica rapa subsp. pekinensis (Chinese cabbage) cv. Kinshu seedling assessed as root growth inhibition at 1 x 10' -6 to 1 x 10' -3 M; format: organism-based; details: in vivo
[14] = tested on: Brassica rapa subsp. pekinensis; experiment: Growth promoting activity in Brassica rapa subsp. pekinensis (Chinese cabbage) cv. Kinshu seedling root at 1 x 10' -6 to 1 x 10' -3 M; format: functional, organism-based
Lactuca sativa [15] = experiment: Growth promoting activity in Lactuca sativa cv. Gokuwase-CISCO (lettuce) seedling root at 1 x 10' -6 to 1 x 10' -3 M; format: functional, organism-based
Lactuca sativa [16] = experiment: Phytotoxicity against Lactuca sativa cv. Gokuwase-CISCO (lettuce) seedling assessed as hypocotyl growth inhibition at 1 x 10' -3 M; format: organism-based; details: in vivo, 1000 µM
[17] = tested on: Brassica rapa subsp. pekinensis; experiment: Growth promoting activity in Brassica rapa subsp. pekinensis (Chinese cabbage) cv. Kinshu seedling root at 1 x 10' -3 M; format: functional, organism-based
[18] = tested on: Brassica rapa subsp. pekinensis; experiment: Phytotoxicity against Brassica rapa subsp. pekinensis (Chinese cabbage) cv. Kinshu seedling assessed as root growth inhibition at 1 x 10' -4 M; format: organism-based; details: in vivo, 100 µM
Oryza sativa [19] = experiment: Phytotoxicity against Oryza sativa cv. Koshihikari (rice) seedling assessed as root growth inhibition at 1 x 10' -3 M; format: organism-based; details: in vivo, 1000 µM

SMILES	Activity (Oryza sativa [1])	Activity (Oryza sativa [2])	Activity (Oryza sativa [3])	Activity (Lactuca sativa [4])	Activity (Lactuca sativa [5])	Activity (Lactuca sativa [6])	Activity (Oryza sativa [7])	fold change (FC) (Oryza sativa [8])	Activity (Vigna mungo [9])	Activity (Vigna mungo [10])	Activity (Vigna mungo [11])	Activity (Vigna mungo [12])	Activity [13]	Activity [14]	Activity (Lactuca sativa [15])	Activity (Lactuca sativa [16])	Activity [17]	Activity [18]	Activity (Oryza sativa [19])
C/C=C(/C(=O)O)N1C(=O)[C@H]2CCCC[C@H]2C1=O	Non-toxic	Active	Non-toxic	inactive	Toxic	Toxic	inactive	2.1	Non-toxic	Non-toxic	inactive	inactive	Non-toxic	inactive	inactive	–	–	–	–
C/C=C(/C(=O)O)N1C(=O)[C@H]2CC=CC[C@H]2C1=O	–	–	Non-toxic	inactive	Toxic	–	inactive	2.1	Non-toxic	Non-toxic	inactive	inactive	–	–	inactive	Toxic	Active	–	–
C/C=C(/C(=O)O)N1C(=O)C2=C(CCCC2)C1=O	–	Active	Toxic	inactive	Toxic	–	inactive	2.1	Non-toxic	Non-toxic	inactive	inactive	–	–	inactive	Toxic	Active	Toxic	–
C/C=C(/C(=O)O)N1C(=O)c2ccccc2C1=O	–	–	–	inactive	Toxic	–	Active	2.1	Non-toxic	Non-toxic	inactive	inactive	–	–	inactive	Toxic	Active	–	Toxic
C/C=C(/C(=O)O)N1C(=O)[C@H]2CCCC[C@@H]2C1=O (relative stereo)	Non-toxic	–	Non-toxic	inactive	Toxic	–	inactive	2.1	Non-toxic	Non-toxic	inactive	inactive	Non-toxic	inactive	inactive	Toxic	–	–	–
C/C=C(/C(=O)O)N1C(=O)c2cc(Cl)c(Cl)cc2C1=O [4,5-Cl2P-BTEA]	–	–	Non-toxic	inactive	Toxic	Toxic	Active	2.1	Non-toxic	Non-toxic	inactive	inactive	Non-toxic	inactive	inactive	–	–	–	–
C[C@@H](O)[C@@H](C(=O)O)N1C(=O)[C@H]2CCCC[C@H]2C1=O [CIS-1,2,3,4,5,6-HEXAHYDROPHTHALOYL-L-THREONINE]	Non-toxic	Active	Non-toxic	inactive	Toxic	Toxic	inactive	1.6	Non-toxic	Non-toxic	inactive	inactive	Non-toxic	inactive	inactive	–	–	–	–
C[C@@H](O)[C@@H](C(=O)O)N1C(=O)[C@H]2CC=CC[C@H]2C1=O [CIS-1,2,3,6-TETRAHYDROPHTHALOYL-L-THREONINE]	–	–	Non-toxic	inactive	Toxic	Toxic	inactive	1.6	Non-toxic	Non-toxic	inactive	inactive	Non-toxic	inactive	inactive	–	–	–	–
C[C@@H](O)[C@@H](C(=O)O)N1C(=O)c2ccccc2C1=O [N PHTHALOYL-L-THREONINE]	–	–	–	inactive	Toxic	–	Active	1.6	Non-toxic	Non-toxic	inactive	inactive	Non-toxic	inactive	inactive	Toxic	–	–	Toxic
C[C@@H](O)[C@@H](C(=O)O)N1C(=O)C2=C(CCCC2)C1=O [N-(3,4,5,6-TETRAHYDROPHTHALOYL)-L-THREONINE]	–	Active	Toxic	inactive	Toxic	–	inactive	1.6	Non-toxic	Non-toxic	inactive	inactive	Non-toxic	inactive	inactive	Toxic	–	–	–
C[C@@H](O)[C@@H](C(=O)O)N1C(=O)c2cc(Cl)c(Cl)cc2C1=O [N-(4,5-DICHLOROPHTHALOYL)-L-THREONINE]	–	–	Non-toxic	inactive	Toxic	Toxic	Active	1.6	Non-toxic	Non-toxic	inactive	inactive	Non-toxic	inactive	inactive	–	–	–	–
C[C@@H](O)[C@@H](C(=O)O)N1C(=O)[C@H]2CCCC[C@@H]2C1=O [TRANS-1,2,3,4,5,6-HEXAHYDROPHTHALOYL-L-THREONINE]	Non-toxic	–	Non-toxic	inactive	Toxic	–	inactive	1.6	Non-toxic	Non-toxic	inactive	inactive	Non-toxic	inactive	inactive	Toxic	–	–	–
